*1 amine or outer side, *2 acyl side, *3 side chain or, on linkers, in order; H or OH if unused. Where a SMILES comes first, the peptide text is derived from it. [ ]: non-standard residue; d: D form. The star is where a group is joined. X1 = O=C([C@H](CCCCNCS(=O)(=O)O)N[*:1])[*:2]; Octanoyl = CCCCCCCC(=O)*
Assays:
[1] = maximal tolerated dose, single intravenous administration of Compound 1324; type: in vivo, mice; settings: for Number of Survivors on Day 0: 2 or 6.5 hrs post-administration
Experimental: Mice received single intravenous administrations of Compound 1324, the methane sulfonate analogue of Compound 843, and were monitored for survival for at least 4 days. There were no deaths at a dose of less than or equal to 180 mg/kg.
To determine the maximal tolerated dose (MTD) and estimate the lethal dose 50% (LD50) of Compound 1324 sodium when administered intravenously in a single-bolus in mice.
Animals: On arrival and study initiation, three groups Thirty-seven male CD-1 mice (Charles River Lab)had average body weights of 39, 28 and 28 gm, respectively.
Solution Prep: A 120 mg/ml of active Compound 1324 (active moiety corrected for) was made in saline. All concentrations from 5 mg/ml to 80 mg/ml were dilutions of the 120 mg/ml solution with saline. The highest concentration used in the intravenous administration was 20 mg/ml.
Mice were randomly assigned to one of ten groups (4 mice per group, except the highest dose group which only had one mouse). Mice were administered intravenously 10 ml/kg of either 0 (saline), 5, 6, 7, 8, 14, 16, 18, or 20 mg/ml solution for doses of […]. One mouse received 14.1 ml/kg of a 20 mg/ml solution for a dose of 282 mg/kg. Mice were monitored for survival for at least four days post-administration.

[2] = pharmacokinetics, single intravenous dose, plasma bioassay (E. coli zone clearing); type: in vivo, mice; settings: 140 mg/kg i.v.
Experimental: A pharmacokinetics study of MSI-1324 in mice using a single dose administration was conducted. Thirty-two CD-1 male mice were injected with MSI-1324 sodium with a dose of 140 mg/kg (corrected for peptide content). Terminal blood samples were obtained from 2 to 4 mice at timepoints of 0 (prior to dosing), 5, 15, 30, 60 min, 2, 4, 6, 24, and 48 hours post-dose. Plasma concentrations were estimated by bioassay.
40 animals CD-1®BR mice (Charles River Lab) with a mean body weight of 25.6 gms at study initiation were used.
A 14 mg/mL solution of MSI-1324 was made in saline (0.9% sodium chloride injectable USP, Baxter) corrected for peptide content.
Thirty-six mice were intravenously administered a single bolus of MSI-1324 at a dose of 140 mg/kg corrected for peptide content using an injection volume of 10 mL/kg of the 14 mg/mL solution. Four mice were not injected and supplied pre-dosing blood samples. Terminal blood samples were obtained via cardiac puncture in halothane-anesthetized mice at timepoints of 0 (prior to dosing), 5, 15, 30, 60 min, 2, 4, 6, 24, and 48 hours post-dose. Two to four mice were terminally bled at each timepoint. The blood samples were centrifuged and plasma transferred into separate tubes for bioassay analysis. The bioassay used was antibacterial zone clearing (disk diffusion) on Escherichia coli lawns.

S. aureus ATCC 29213 = type: cell-based; settings: ATCC 29213
[3] = test system: P. aeruginosa strain ATCC 27853; type: cell-based; settings: ATCC 27853
Method in brief: (§1)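 Broth microdilution per NCCLS M7-T2: final peptide levels 0.25 to 256 μg/ml (twofold steps), inoculum 1-5×10^5 CFUs/ml in full-strength Mueller Hinton broth. MIC read as lowest concentration leaving the well clear after 16-20 hours at 37° C.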

[4] = test system: E. coli ATCC strain 25922; test: Minimal Inhibitory Concentration, microtiter broth dilution; type: cell-based; settings: ATCC strain 25922
Method in brief: as §1

C. albicans ATCC 90028 = type: cell-based; settings: ATCC 90028
Experimental: The procedure for the anti-bacterial assay is based upon the guidelines of the National Committee for Clinical Laboratory Standards, Document M7-T2, Volume 8, No. 8, 1988, which document is entirely incorporated herein by reference.
Stock solutions of peptides, with and without the appropriate substitutions, were prepared at a concentration of 512 μg/ml in sterile deionized distilled water and stored at −70° C.
The stock peptide solution was diluted in serial dilutions (1:2) down the wells of a microtiter plate so that the final concentrations of peptides in the wells were 0.25, 0.50, 1, 2, 4, 8, 16, 32, 64, 128 and 256 μg/ml. 1-5×10^5 CFUs/ml of either S. aureus ATCC 25923, E. coli ATCC 25922, P. aeruginosa ATCC 27853, or C. albicans, were added to the wells in full strength Mueller Hinton broth (BBL 11443) from a mid-log culture. The inoculum was standardized spectrophotometrically at 600 nm and was verified by colony counts. The plates were incubated for 16-20 hours at 37° C., and the minimal inhibitory concentration (MIC) for each peptide was determined. Minimal inhibitory concentration is defined as the lowest concentration of peptide which produces a clear well in the microtiter plate. The minimal inhibitory concentration of each of the peptides with and/or without the appropriate substitutions is given in Table I below.
The in vitro anti-microbial activities of the methane sulfonate derivatives were determined according to the methods described in Examples 1 and 2. The activities against ATCC strains of S. aureus, E. coli, P. aeruginosa, and C. albicans, and the hemolysis of red blood cells were compared to the parent compound (Table IV). The activities for Compound 843 (Oct-SEQ ID NO:143) methane sulfonate against clinical strains of P. aeruginosa isolated from cystic fibrosis patients were compared to the parent compound (Table V). The activity for Compound 469 (Oct-SEQ ID NO:27) methane sulfonate against P. gingivalis was compared to the parent compound (Table VI).

CCCCCCCC(=O)N[C@@H](CCCNCS(=O)(=O)O)C(=O)N[C@@H](CCCNCS(=O)(=O)O)C(=O)N[C@@H](CC(C)C)C(=O)N[C@@H](CC(C)C)C(=O)N[C@@H](CCCNCS(=O)(=O)O)C(=O)N[C@@H](CCCNCS(=O)(=O)O)C(=O)N[C@@H](CC(C)C)C(=O)N[C@@H](CCCNCS(=O)(=O)O)C(=O)N[C@@H](CCCNCS(=O)(=O)O)C(=O)N[C@@H](CC(C)C)C(N)=O [Compound 1324]
below detection limits of the assay: plasma concentration at 60 min post-dose ([2]; limit of detection approximately 150 ug/mL, listed as MSI-1324)
3: Number of Survivors on Day 2 ([1]; IV 200 mg/kg, 4 mice) | Number of Survivors on Day 3 ([1]; IV 200 mg/kg, 4 mice) | Number of Survivors on Day 4 ([1]; IV 200 mg/kg, 4 mice)
Three of four: mice that survived ([1]; 200 mg/kg single intravenous)
approximately 600 ug/mL: peak plasma concentration ([2]; estimated by bioassay)
200 to 282 mg/kg: LD50 ([1]; mouse, in vivo, single intravenous bolus, CD-1 mice)
5 min: time of peak concentration post-dose ([2]; first sampling timepoint)
< 150 µg/mL: level at 1 h ([2]; male, CD-1, mouse, plasma, iv, limit of detection approximately 150 ug/mL, read-out: plasma concentration at 60 min post-dose)
0: Number of Survivors on Day 2 ([1]; IV 282 mg/kg, 1 mouse) | Number of Survivors on Day 3 ([1]; IV 282 mg/kg, 1 mouse) | Number of Survivors on Day 4 ([1]; IV 282 mg/kg, 1 mouse)
4: Number of Survivors on Day 1 ([1]; IV 50 mg/kg, 4 mice) | Number of Survivors on Day 2 ([1]; IV 50 mg/kg, 4 mice) | Number of Survivors on Day 3 ([1]; IV 50 mg/kg, 4 mice) | Number of Survivors on Day 4 ([1]; IV 50 mg/kg, 4 mice) | Number of Survivors on Day 5 ([1]; IV 50 mg/kg, 4 mice) | Number of Survivors on Day 0 ([1]; IV 50 mg/kg, 4 mice) | Number of Survivors on Day 1 ([1]; IV 60 mg/kg, 4 mice) | Number of Survivors on Day 2 ([1]; IV 60 mg/kg, 4 mice) | Number of Survivors on Day 3 ([1]; IV 60 mg/kg, 4 mice) | Number of Survivors on Day 4 ([1]; IV 60 mg/kg, 4 mice) | Number of Survivors on Day 5 ([1]; IV 60 mg/kg, 4 mice) | Number of Survivors on Day 0 ([1]; IV 60 mg/kg, 4 mice) | Number of Survivors on Day 1 ([1]; IV 70 mg/kg, 4 mice) | Number of Survivors on Day 2 ([1]; IV 70 mg/kg, 4 mice) | Number of Survivors on Day 3 ([1]; IV 70 mg/kg, 4 mice) | Number of Survivors on Day 4 ([1]; IV 70 mg/kg, 4 mice) | Number of Survivors on Day 5 ([1]; IV 70 mg/kg, 4 mice) | Number of Survivors on Day 0 ([1]; IV 70 mg/kg, 4 mice) | Number of Survivors on Day 1 ([1]; IV 80 mg/kg, 4 mice) | Number of Survivors on Day 2 ([1]; IV 80 mg/kg, 4 mice) | Number of Survivors on Day 3 ([1]; IV 80 mg/kg, 4 mice) | Number of Survivors on Day 4 ([1]; IV 80 mg/kg, 4 mice) | Number of Survivors on Day 5 ([1]; IV 80 mg/kg, 4 mice) | Number of Survivors on Day 0 ([1]; IV 80 mg/kg, 4 mice) | Number of Survivors on Day 1 ([1]; IV 140 mg/kg, 4 mice) | Number of Survivors on Day 2 ([1]; IV 140 mg/kg, 4 mice) | Number of Survivors on Day 3 ([1]; IV 140 mg/kg, 4 mice) | Number of Survivors on Day 4 ([1]; IV 140 mg/kg, 4 mice) | Number of Survivors on Day 5 ([1]; IV 140 mg/kg, 4 mice) | Number of Survivors on Day 7 ([1]; IV 140 mg/kg, 4 mice) | Number of Survivors on Day 0 ([1]; IV 140 mg/kg, 4 mice) | Number of Survivors on Day 1 ([1]; IV 160 mg/kg, 4 mice) | Number of Survivors on Day 2 ([1]; IV 160 mg/kg, 4 mice) | Number of Survivors on Day 3 ([1]; IV 160 mg/kg, 4 mice) | Number of Survivors on Day 4 ([1]; IV 160 mg/kg, 4 mice) | Number of Survivors on Day 5 ([1]; IV 160 mg/kg, 4 mice) | Number of Survivors on Day 7 ([1]; IV 160 mg/kg, 4 mice) | Number of Survivors on Day 0 ([1]; IV 160 mg/kg, 4 mice) | Number of Survivors on Day 1 ([1]; IV 180 mg/kg, 4 mice) | Number of Survivors on Day 2 ([1]; IV 180 mg/kg, 4 mice) | Number of Survivors on Day 3 ([1]; IV 180 mg/kg, 4 mice) | Number of Survivors on Day 4 ([1]; IV 180 mg/kg, 4 mice) | Number of Survivors on Day 5 ([1]; IV 180 mg/kg, 4 mice) | Number of Survivors on Day 7 ([1]; IV 180 mg/kg, 4 mice) | Number of Survivors on Day 0 ([1]; IV 180 mg/kg, 4 mice)

CCCCCCCC(=O)N[C@@H](CCCCNCS(=O)(=O)O)C(=O)N[C@H](C(=O)N[C@@H](C)C(=O)NCC(=O)N[C@@H](CCCCNCS(=O)(=O)O)C(=O)N[C@H](C(=O)N[C@@H](C)C(=O)N[C@@H](CCCCNCS(=O)(=O)O)C(=O)N[C@H](C(=O)N[C@@H](C)C(=O)NCC(=O)N[C@@H](CCCCNCS(=O)(=O)O)C(=O)N[C@H](C(=O)N[C@@H](C)C(=O)N[C@@H](CCCCNCS(=O)(=O)O)C(=O)N[C@H](C(=O)N[C@@H](C)C(=O)NCC(=O)N[C@@H](CCCCNCS(=O)(=O)O)C(=O)N[C@H](C(=O)N[C@@H](C)C(N)=O)[C@@H](C)CC)[C@@H](C)CC)[C@@H](C)CC)[C@@H](C)CC)[C@@H](C)CC)[C@@H](C)CC [Compound 1662] (Octanoyl-[X1]IAG[X1]IA[X1]IAG[X1]IA[X1]IAG[X1]IA-NH2)
64 µg/mL: MIC C. albicans ATCC 90028 (C. albicans ATCC 90028)
4 µg/mL: MIC S. aureus ATCC 29213 (S. aureus ATCC 29213)
32 µg/mL: MIC P. aeruginosa ATCC 27853 [3]
8 µg/mL: MIC P. gingivalis ATTC 33277 (P. gingivalis) | MIC E. coli ATCC 25922 [4]

Reference: US6348445B1, “Biologically active peptides with reduced toxicity in animals and a method for preparing same” (priority 1992, dated 2002)
